Laboratory results reported in paper PMC3711766 (The Journal of neuroscience : the official journal of the …, 2013).
Like-named read-outs stand apart in the source and are kept apart here. Where a SMILES comes first, the peptide text is derived from it. [ ]: non-standard residue; d: D form. The star is where a group is joined. X1 = CN1c2cc3c(cc2C(CS(=O)(=O)[O-])=CC1(C)C)C(c1ccc(C(=O)NCCCCCN2C(=O)CC(*)C2=O)cc1C(=O)O)=c1cc2c(cc1O3)=[N+](C)C(C)(C)C=C2CS(=O)(=O)O

Tests used:
FLAG-MOR [1] = biological target: T1, FLAG-MOR (Mus musculus, UniProt P42866); type: binding
FLAG-MOR [2] = biological target: T1, FLAG-MOR; test: Binding and unbinding kinetics of derm A594 in live FLAG-MOR HEK 293 cells; details: for average time constant of association: derm A594 30 nM
FLAG-MOR [3] = biological target: T1, FLAG-MOR; type: binding; details: derm A594 200 nM; ME 30 µM 2 hrs, then ME 3 µM pre pulse
FLAG-MOR [4] = biological target: T1, FLAG-MOR; type: binding; remark: listed apart in the source
FLAG-MOR [5] = biological target: T1, FLAG-MOR; test: Steady state binding of derm A594 in live FLAG-MOR HEK 293 cells
FLAG-MOR [6] = biological target: T1, FLAG-MOR; type: cell-based; details: ME 1 µM, 5 sec; pertussis toxin 100 ng/mL overnight

T1 sequence (P42866 whole entry): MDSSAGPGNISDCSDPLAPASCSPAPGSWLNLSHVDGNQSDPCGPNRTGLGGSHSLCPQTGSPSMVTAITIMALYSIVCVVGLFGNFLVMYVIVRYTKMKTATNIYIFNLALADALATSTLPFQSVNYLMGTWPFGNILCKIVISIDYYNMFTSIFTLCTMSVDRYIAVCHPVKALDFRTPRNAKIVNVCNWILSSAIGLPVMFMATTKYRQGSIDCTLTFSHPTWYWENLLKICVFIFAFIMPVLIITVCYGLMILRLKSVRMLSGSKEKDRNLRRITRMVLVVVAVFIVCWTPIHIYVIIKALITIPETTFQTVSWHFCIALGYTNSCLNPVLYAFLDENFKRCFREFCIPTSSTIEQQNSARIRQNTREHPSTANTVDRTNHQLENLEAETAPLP

COc1ccc2c3c1O[C@H]1C(=O)CC[C@@]4(O)[C@@H](C2)N(C)CC[C@]314 [oxycodone]
fraction derm A594 remaining after 3 min (FLAG-MOR [1]): 0.23±0.01

C[C@@H](NC(=O)[C@@H](N)Cc1ccc(O)cc1)C(=O)N[C@@H](Cc1ccccc1)C(=O)NCC(=O)N[C@@H](Cc1ccc(O)cc1)C(=O)N1CCC[C@H]1C(=O)N[C@@H](CCCCN)C(=O)N[C@@H](CSC1CC(=O)N(CCCCCNC(=O)c2ccc(C3=c4cc5c(cc4Oc4cc6c(cc43)C(CS(=O)(=O)[O-])=CC(C)(C)N6C)=[N+](C)C(C)(C)C=C5CS(=O)(=O)O)c(C(=O)O)c2)C1=O)C(N)=O (stereo partly drawn) [derm A594, dermorphin Alexa 594] (H-Y[dA]FGYPKC(X1)-NH2; N-terminus assumed)
kon (FLAG-MOR [2]): 353000 M⁻¹ s⁻¹ | decrease of koff after ME treatment (FLAG-MOR [2]; ME 30 µM 2 hr vs untreated): approximately 6 fold | decrease of kon after ME treatment (FLAG-MOR [2]; ME 30 µM 2 hr vs untreated): about 40% | average time constant of association (FLAG-MOR [2]; ME treated cells (30 µM 2 hr)): 51.5 ± 7.8 s | average time constant of association (FLAG-MOR [2]; untreated cells): 11.4 ± 0.4 s | time constant of dissociation from the receptor (FLAG-MOR [2]; live cells): ~10 s | koff (FLAG-MOR [2]; read-out: koff (intercept of linear fit)): 0.011 s⁻¹ | relative amount of derm A594 bound after 1 min (R/G) (FLAG-MOR [3]): 0.95±0.08 | fraction derm A594 remaining after 3 min (FLAG-MOR [4]; WT MEF cells, untreated): 0.09±0.01 | fraction derm A594 remaining after 3 min (FLAG-MOR [4]; β-arr 1/2 k.o. MEF cells, untreated): 0.13±0.02 | Hill slope of steady state binding (FLAG-MOR [5]; after ME 30 µM 2 hrs): 1.03±0.3 | Hill slope of steady state binding (FLAG-MOR [5]; untreated live cells): 0.95±.02

pertussis toxin [reference compound]
fraction derm A594 remaining after 3 min (FLAG-MOR [4]; β-arr 1/2 k.o. MEF cells, pertussis toxin 100 ng/ml overnight, no ME): 0.12±0.02 | GIRK current (FLAG-MOR [6]): 3.3±6.8 pA
